{"source": "PubChem BioAssay AID1259409", "about": "(Chemical Carcinogenesis Research Information System (CCRIS), 2018)", "origin": "cited, not measured here", "system": "rodent chemically induced tumor inhibition, incidence and multiplicity", "assay": "CCRIS tumor inhibitor studies", "data": [{"smiles": "CC(O)CCC(=O)c1ccoc1", "note": "(configuration not stated)", "values": [{"measurement": "tumour outcome (control, treated, inhibition, significance)", "setting": "Carcinogen: 4-(METHYLNITROSAMINO)-1-(3-PYRIDYL)-1-BUTANONE, 64091-91-4, Dose [Inhibitor]: 0, 1 UMOL IN 0.1 ML CORN OIL ONCE 2 HR PRIOR TO CARCINOGEN DOSE (STUDY DURATION: 16 WK), Route [Inhibitor]: GAVAGE, Species: MOUSE, Strain/Sex: STRAIN-A/FEMALE, Target Tissue: Type of Lesion: LUNG: ADENOMA, Dose [Carcinogen]: 10 UMOL IN 0.1 ML SALINE ONCE, Promoter: NONE USED", "result": "100%, 100%, 0%, not significant"}]}, {"smiles": "C/C=C/S/C=C/C", "values": [{"measurement": "tumour outcome (control, treated, inhibition, significance)", "setting": "Carcinogen: 7,12-DIMETHYLBENZ[A]ANTHRACENE, 57-97-6, Dose [Inhibitor]: 0, 1 MG IN 0.2 ML ACETONE APPLIED 30 MIN AFTER EACH MEZEREIN DOSE (STUDY DURATION: 20 WK), Route [Inhibitor]: DERMAL, Species: MOUSE, Strain/Sex: SENCAR/FEMALE, Target Tissue: Type of Lesion: SKIN: PAPILLOMA, Dose [Carcinogen]: 0.1 UMOL IN 0.2 ML ACETONE ONCE, Promoter: TPA, 16561-29-8, MEZEREIN, 37807-41-5, Promoter: TPA, 16561-29-8, MEZEREIN, 37807-41-5", "result": "100%, 86%, 14%, p<0.005"}, {"measurement": "tumour outcome (control, treated, inhibition, significance)", "setting": "Carcinogen: 7,12-DIMETHYLBENZ[A]ANTHRACENE, 57-97-6, Dose [Inhibitor]: 0, 1 MG IN 0.2 ML ACETONE APPLIED 30 MIN AFTER EACH TPA DOSE (STUDY DURATION: 20 WK), Route [Inhibitor]: DERMAL, Species: MOUSE, Strain/Sex: SENCAR/FEMALE, Target Tissue: Type of Lesion: SKIN: PAPILLOMA, Dose [Carcinogen]: 0.1 UMOL IN 0.2 ML ACETONE ONCE, Promoter: TPA, 16561-29-8, MEZEREIN, 37807-41-5, Promoter: TPA, 16561-29-8, MEZEREIN, 37807-41-5", "result": "100%, 91%, 9%, p<0.005"}]}, {"smiles": "Cc1c(C)c(N)c(C)c(C)c1N", "values": [{"measurement": "outcome", "setting": "Carcinogen: 7,12-DIMETHYLBENZ[A]ANTHRACENE, 57-97-6, Dose [Inhibitor]: 0.1% IN POWDERED DIET BEGINNING 1 WK POST CARCINOGEN DOSE FOR 51 WK (STUDY DURATION: 52 WK), Route [Inhibitor]: ORAL, Species: RAT, Strain/Sex: SPRAGUE-DAWLEY/FEMALE, Target Tissue: Type of Lesion: EAR DUCT: BENIGN TUMOR, Dose [Carcinogen]: 2.5 MG/100 G BW IN 0.5 ML SESAME OIL ONCE, Promoter: NONE USED", "result": "7/19 (37%), 5/17 (29%), 20, not calculated"}, {"measurement": "tumour outcome (control, treated, inhibition, significance)", "setting": "Carcinogen: 7,12-DIMETHYLBENZ[A]ANTHRACENE, 57-97-6, Dose [Inhibitor]: 0.1% IN POWDERED DIET BEGINNING 1 WK POST CARCINOGEN DOSE FOR 51 WK (STUDY DURATION: 52 WK), Route [Inhibitor]: ORAL, Species: RAT, Strain/Sex: SPRAGUE-DAWLEY/FEMALE, Target Tissue: Type of Lesion: MAMMARY GLAND: CARCINOMA, Dose [Carcinogen]: 2.5 MG/100 G BW IN 0.5 ML SESAME OIL ONCE, Promoter: NONE USED", "result": "6/19 (32%), 6/17 (35%), -12%, not calculated"}, {"measurement": "tumour outcome (control, treated, inhibition, significance)", "setting": "Carcinogen: 7,12-DIMETHYLBENZ[A]ANTHRACENE, 57-97-6, Dose [Inhibitor]: 0.1% IN POWDERED DIET BEGINNING 1 WK POST CARCINOGEN DOSE FOR 51 WK (STUDY DURATION: 52 WK), Route [Inhibitor]: ORAL, Species: RAT, Strain/Sex: SPRAGUE-DAWLEY/FEMALE, Target Tissue: Type of Lesion: MAMMARY GLAND: FIBROADENOMA, Dose [Carcinogen]: 2.5 MG/100 G BW IN 0.5 ML SESAME OIL ONCE, Promoter: NONE USED", "result": "15/19 (79%), 4/17 (24%), 71%, p<0.01"}]}, {"smiles": "C[C@H]1[C@H](C)CC[C@]2(C(=O)O)CC[C@]3(C)C(=CC[C@@H]4[C@@]5(C)CC[C@H](O)C(C)(C)[C@@H]5CC[C@]43C)[C@H]12", "values": [{"measurement": "tumour outcome (control, treated, inhibition, significance)", "setting": "Carcinogen: 7,12-DIMETHYLBENZ[A]ANTHRACENE : 57-97-6, Dose [Inhibitor]: 0, 2 UMOL IN 200 µL ACETONE 2/WK FOR 20 WK BEGINNING 1 WK POST CARCINOGEN DOSE (STUDY DURATION: 20 WK), Route [Inhibitor]: DERMAL, Species: MOUSE, Strain/Sex: CD-1/FEMALE, Target Tissue: Type of Lesion: SKIN: TUMOR, Dose [Carcinogen]: 200 NMOL IN 200 µL ACETONE ONCE, Promoter: 12-O-TETRADECANOYLPHORBOL-13-ACETATE, 16561-29-8", "result": "93%, 62%, 33%, not significant"}, {"measurement": "tumour outcome (control, treated, inhibition, significance)", "setting": "Carcinogen: 7,12-DIMETHYLBENZ[A]ANTHRACENE, 57-97-6, Dose [Inhibitor]: 0, 0.1 UMOL IN 200 µL ACETONE 2/WK FOR 18 WK BEGINNING 1 WK POST CARCINOGEN DOSE (STUDY DURATION: 18 WK), Route [Inhibitor]: DERMAL, Species: MOUSE, Strain/Sex: CD-1/FEMALE, Target Tissue: Type of Lesion: SKIN: TUMOR, Dose [Carcinogen]: 200 NMOL IN 200 µL ACETONE ONCE, Promoter: 12-O-TETRADECANOYLPHORBOL-13-ACETATE, 16561-29-8", "result": "87%, 87%, 0%, not significant"}, {"measurement": "tumour outcome (control, treated, inhibition, significance)", "setting": "Carcinogen: 7,12-DIMETHYLBENZ[A]ANTHRACENE, 57-97-6, Dose [Inhibitor]: 0, 0.3 UMOL IN 200 µL ACETONE 2/WK FOR 18 WK BEGINNING 1 WK POST CARCINOGEN DOSE (STUDY DURATION: 18 WK), Route [Inhibitor]: DERMAL, Species: MOUSE, Strain/Sex: CD-1/FEMALE, Target Tissue: Type of Lesion: SKIN: TUMOR, Dose [Carcinogen]: 200 NMOL IN 200 µL ACETONE ONCE, Promoter: 12-O-TETRADECANOYLPHORBOL-13-ACETATE, 16561-29-8", "result": "87%, 93%, -7%, not significant"}, {"measurement": "tumour outcome (control, treated, inhibition, significance)", "setting": "Carcinogen: 7,12-DIMETHYLBENZ[A]ANTHRACENE, 57-97-6, Dose [Inhibitor]: 0, 1 UMOL IN 200 µL ACETONE 2/WK FOR 18 WK BEGINNING 1 WK POST CARCINOGEN DOSE (STUDY DURATION: 18 WK), Route [Inhibitor]: DERMAL, Species: MOUSE, Strain/Sex: CD-1/FEMALE, Target Tissue: Type of Lesion: SKIN: TUMOR, Dose [Carcinogen]: 200 NMOL IN 200 µL ACETONE ONCE, Promoter: 12-O-TETRADECANOYLPHORBOL-13-ACETATE, 16561-29-8", "result": "87%, 77%, 11%, not significant"}, {"measurement": "tumour outcome (control, treated, inhibition, significance)", "setting": "Carcinogen: 7,12-DIMETHYLBENZ[A]ANTHRACENE, 57-97-6, Dose [Inhibitor]: 0, 1 UMOL IN 200 µL ACETONE 2/WK FOR 20 WK BEGINNING 1 WK POST CARCINOGEN DOSE (STUDY DURATION: 20 WK), Route [Inhibitor]: DERMAL, Species: (30,30)/(30,30), Strain/Sex: CD-1/FEMALE, Target Tissue: Type of Lesion: SKIN: TUMOR, Dose [Carcinogen]: 200 NMOL IN 200 µL ACETONE ONCE, Promoter: 12-O-TETRADECANOYLPHORBOL-13-ACETATE, 16561-29-8", "result": "93%, 80%, 14%, not significant"}, {"measurement": "tumour outcome (control, treated, inhibition, significance)", "setting": "Carcinogen: 7,12-DIMETHYLBENZ[A]ANTHRACENE, 57-97-6, Dose [Inhibitor]: 0, 2 UMOL IN 200 µL ACETONE 2/WK FOR 18 WK BEGINNING 1 WK POST CARCINOGEN DOSE (STUDY DURATION: 18 WK), Route [Inhibitor]: DERMAL, Species: MOUSE, Strain/Sex: CD-1/FEMALE, Target Tissue: Type of Lesion: SKIN: TUMOR, Dose [Carcinogen]: 200 NMOL IN 200 µL ACETONE ONCE, Promoter: 12-O-TETRADECANOYLPHORBOL-13-ACETATE, 16561-29-8", "result": "87%, 60%, 31%, not significant"}]}, {"smiles": "Oc1ccc(/C=C/c2cc(O)cc(O)c2)cc1", "values": [{"measurement": "outcome", "setting": "Carcinogen: Diethylnitrosamine, 55-18-5, Dose [Inhibitor]: 0, 50, 100, 300 mg/kg bw for 20 wk, Dose [Inhibitor]: 0, 50, 100, 300 mg/kg bw for 20 wk, Route [Inhibitor]: Oral (diet), Species: Rat, Strain/Sex: Sprague-Dawley/Female, Target Tissue: Type of Lesion: Liver: nodules, Dose [Carcinogen]: 200 mg/kg bw once in peanut oil after 4 wk on diet, study duration 20 wk, Promoter: Phenobarbital, 50-06-6", "result": "100%; 78%; 50% (p<0.05); 40% (p<0.05)"}]}, {"smiles": "C=C1/C(=C\\C=C2/CCC[C@]3(C)[C@@H]([C@H](C)CCCC(C)C)CC[C@@H]23)C[C@@H](O)C[C@@H]1O", "values": [{"measurement": "tumour outcome (control, treated, inhibition, significance)", "setting": "Carcinogen: N-METHYL-N'-NITRO-N-NITROSOGUANIDINE [70-25-7], Dose [Inhibitor]: 0.04 UG IN MEDIUM CHAIN TRIGLYCERIDE 3X/WK FOR 24 WK BEGINNING IMMEDIATELY POST LAST CARCINOGEN DOSE (STUDY DURATION: 48, Route [Inhibitor]: INTRAGASTRIC, Species: RAT, Strain/Sex: WISTAR WKY/STD/MALE, Target Tissue: Type of Lesion: STOMACH AND SMALL INTESTINE: TUMOR, Dose [Carcinogen]: 0.01% IN DRINKING WATER FOR 24 WK (STUDY DURATION: 48 WK), Promoter: NONE", "result": "16/30 (53%), 8/30 (27%), 49%, p<0.05"}, {"measurement": "tumour outcome (control, treated, inhibition, significance)", "setting": "Carcinogen: N-METHYL-N'-NITRO-N-NITROSOGUANIDINE, 70-25-7, Dose [Inhibitor]: 0, 0.04 UG 3/WK FOR 24 WK BEGINNING POST CARCINOGEN TREATMENT (STUDY DURATION: 48 WK), Route [Inhibitor]: GAVAGE, Species: RAT, Strain/Sex: WISTAR/MALE, Target Tissue: Type of Lesion: GASTROINTESTINAL TRACT: TUMOR, Dose [Carcinogen]: 0.01% IN DRINKING WATER FOR 24 WK, Promoter: NONE USED", "result": "16/30 (53%), 8/30 (27%), 49%, p<0.05"}, {"measurement": "tumour outcome (control, treated, inhibition, significance)", "setting": "Carcinogen: N-METHYL-N-NITROSOUREA, 684-93-5, Dose [Inhibitor]: 0, 0.04 UG IN 0.2 ML OF MEDIUM CHAIN TRIGLYCERIDE 3/WK FOR 40 WK (STUDY DURATION: 46 WK), Route [Inhibitor]: INTRAGASTRIC, Species: RAT, Strain/Sex: F344/FEMALE, Target Tissue: Type of Lesion: COLON: TUMOR, Dose [Carcinogen]: 1 MG IN 0.5 ML DISTILLED WATER 1/WK FOR 40 WK, Promoter: NONE USED", "result": "21/24 (88%), 12/25 (48%), 45%, p<0.01"}, {"measurement": "tumour outcome (control, treated, inhibition, significance)", "setting": "Carcinogen: N-METHYL-N-NITROSOUREA, 684-93-5, Dose [Inhibitor]: 0.04 UG IN 0.2 ML OF MEDIUM CHAIN TRIGLYCERIDE FOLLOWING EACH PROMOTER DOSE 3/WK FOR 48 WK (STUDY DURATION: 50 WK), Route [Inhibitor]: GAVAGE, Species: RAT, Strain/Sex: F344/FEMALE, Target Tissue: Type of Lesion: COLON: ADENOMA OR ADENOCARCINOMA OR LEIOMYOSARCOMA, Dose [Carcinogen]: 2.5 MG IN 0.5 ML DISTILLED WATER TWICE IN 1 WK, Promoter: LITHOCHOLIC ACID, 434-13-9", "result": "15/32 (47%), 6/30 (20%), 57%, p<0.05"}]}]}
